# Measured values taken from patent US7314857B2, “Synergistic antimicrobial compositions and methods of inhibiting biofilm formation” (Kane Biotech Inc., priority 2003, dated 2008).
# Key:
# Test in all cases: Growth on urinary catheter segments coated with TDMAC plus composition (roll plate)
# [1] = tested on: Staph. epidermidis; format: cell-based, Staphylococcus epidermidis
# Protocol: (§1) Clear vinyl catheter segments (3 cm sections of tubing) that had been preheated (incubated in sterile water at 65° C. overnight) were coated in 5% TDMAC in ethanol for an hour at room temperature. The catheter segments were vigorously washed with sterile water and air-dried. The segments were then immersed in ethanol and coating solution (1000 μg OT+100 μg PS+100 μg EDTA/ml of water) for 2 hours at −20° C. In addition, a few catheter segments were immersed in coating solution alone for 2 hours at −20° C. All the segments were air dried and immersed in a tryptic soy broth culture of Pseudomonas aeruginosa, Klebsiella pneumoniae and Staphylococcus epidermidis for 3 hours at 37° C. The catheter segments were washed 3 times in 3 changes of sterile saline and rolled on tryptic soy agar plates. The plates were incubated overnight at 37° C. and the colonies were counted.
# [2] = tested on: Klebsiella pneumoniae; format: cell-based
# Protocol: as §1
# [3] = tested on: Pseudomonas aeruginosa; format: cell-based
# Protocol: as §1
# [4] = coated vinyl catheter segments vs uncoated control, coating at −20° C.
# [5] = coated vinyl catheter segments, coating 2 hours at −20° C., 3 hours in culture at 37° C., CFU per millimeter of catheter tubing
compound,measurement,setting,value
"CCCCCCCCCCCC[N+](C)(CCCCCCCCCCCC)CCCCCCCCCCCC.[Cl-] [TDMAC, Tridodecyl Methyl Ammonium Chloride]",% Inhibition,[1]; [4],0%
same,Viable Counts (CFU/mM),[1]; [5],20.4 ± 7.7 CFU/mM
same,% Inhibition,[2]; [4],0%
same,Viable Counts (CFU/mM),[2]; [5],4.3 ± 1.3 CFU/mM
same,% Inhibition,[3]; [4],12%
same,Viable Counts (CFU/mM),[3]; [5],18.8 ± 4.6 CFU/mM
